This note sets out measurements from article PMC4491177, “Co-translational capturing of nascent ribosomal proteins by their dedicated chaperones” (Nature Communications, 2015).

The target in assay [1] is T1, ScSqt1.53C (WD-repeat β-propeller domain of Sqt1) (Saccharomyces cerevisiae, UniProt P35184).
T1 construct: ScSqt1.53C (residues 53–431); (His)6 (C); made in house; host or cells: E. coli Rosetta(DE3)
T1 sequence (P35184 53-431): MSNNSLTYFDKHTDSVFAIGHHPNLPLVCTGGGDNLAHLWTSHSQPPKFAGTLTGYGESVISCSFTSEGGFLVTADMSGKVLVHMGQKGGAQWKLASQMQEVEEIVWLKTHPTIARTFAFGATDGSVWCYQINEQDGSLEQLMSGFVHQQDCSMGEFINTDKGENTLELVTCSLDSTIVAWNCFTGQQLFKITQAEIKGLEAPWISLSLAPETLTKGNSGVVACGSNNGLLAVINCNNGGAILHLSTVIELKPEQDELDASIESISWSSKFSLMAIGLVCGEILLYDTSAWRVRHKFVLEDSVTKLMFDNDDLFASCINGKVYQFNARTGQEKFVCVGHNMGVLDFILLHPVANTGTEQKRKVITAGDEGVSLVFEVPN
The assay is described as follows: isothermal titration calorimetry (ITC), S. cerevisiae. It is filed as binding. Particulars: for K / N / ΔH / ΔS: ScSqt1.53C, 15 °C, One Set of Sites fit. Here is the method: ITC experiments were performed on a MicroCal ITC 2000 instrument (GE Healthcare). The following peptides, corresponding to the N-terminal 19 (without N-terminal methionine) or 20 amino acids of S. cerevisiae and C. thermophilum Rpl10, were synthesized with a free acid group at the C terminus (peptides&elephants): Rpl10(1–20) NH2-[…]-COOH, Rpl10(2–20) NH2-[…]-COOH, ctRpl10(1–20) NH2-[…]-COOH and ctRpl10(2–20) NH2-[…]-COOH. Peptides (1 mg each) were dissolved in the appropriate volume of gel-filtration buffer (20 mM HEPES–NaOH (pH 7.5), 200 mM NaCl, 20 mM KCl and 20 mM MgCl2), which was used for the purification of ScSqt1.53C and ctSqt1.52C, to obtain 1 mM stock solutions. Concentrations of proteins were determined by measuring the A280 using a NanoDrop Lite spectrophotometer (Thermo Scientific). For determination of the C. thermophilum Sqt1/L10-N binding, 200 μl of ctSqt1.52C (10 μM) was added to the sample cell and 2 μl of 100 μM solutions of the peptides was titrated in at 25 °C. For determination of the S. cerevisiae Sqt1/L10-N binding, 200 μl of ScSqt1.53C (100 μM) was added to the sample cell and 2 μl of 1 mM solutions of the peptides were titrated in at 15 °C. ITC data were processed using the Origin ITC Software (OriginLab) and thermodynamic parameters were obtained by fitting the data to a One Set of Sites binding model.

The test system of a further assay is Sqt1. Kind of assay: Y2H interaction with Sqt1. It is filed as binding, S. cerevisiae. The following applies: reporter strain PJ69-4A, HIS3 and ADE2 reporters, 3 days at 30 °C. Here is the method: For Y2H interaction assays, plasmids expressing bait proteins, fused to the Gal4 DNA-binding domain (G4BD), and prey proteins, fused to the Gal4 activation domain (G4AD), were co-transformed into reporter strain PJ69-4A. Y2H interactions were documented by spotting representative transformants in 10-fold serial dilution steps onto SC-Trp-Leu, SC-Trp-Leu-His (HIS3 reporter) and SC-Trp-Leu-Ade (ADE2 reporter) plates, which were incubated for 3 days at 30 °C. Growth on SC-Trp-Leu-His plates is indicative of a weak/moderate interaction, whereas only relatively strong interactions permit growth on SC-Trp-Leu-Ade plates.

The next assay relates to Sqt1-Flag. Kind of assay: in vitro binding assay, Ni-affinity co-purification of Sqt1-Flag. Particulars: co-expression in E. coli, C-terminally (His)6-tagged Rpl10, Ni-affinity, SDS–PAGE and western blot. Also noted: species or system S. cerevisiae. Here is the method: For in vitro binding assays between Rpl10-(His)6 and Sqt1-Flag or between ctRpl10-(His)6 and ctSqt1, proteins were co-expressed from pETDuet-1 (Novagen) in Rosetta(DE3) (Novagen) or BL21(DE3) (Novagen) E. coli cells, respectively. Cells were grown in 200 ml of lysogeny broth medium and protein expression was induced at an OD600 of ∼0.6–0.8 by the addition of isopropyl-β-D-thiogalactoside to a final concentration of 0.5 mM. After 5 h of growth at 30 °C, cells were harvested and stored at −80 °C. Cells were resuspended in 25 ml lysis buffer (50 mM Tris-HCl (pH 7.5), 200 mM NaCl, 1.5 mM MgCl2 and 5% glycerol) and lysed with a M-110L Microfluidizer (Microfluidics). The lysate (30 ml volume) was adjusted by the addition of 300 μl 10% NP-40 to 0.1% NP-40 (note that from here onwards all buffers contained 0.1% NP-40). An aliquot of 100 μl of total extract (sample T) was taken and mixed with 100 μl of 6 × loading buffer. The total extract was then centrifuged at 4 °C for 20 min at 14,000 r.p.m. The soluble extract was transferred to a 50-ml Falcon tube and, as above, an aliquot of 100 μl of soluble extract (sample S) was taken and mixed with 100 μl of 6 × loading buffer. The insoluble pellet fraction (sample P) was resuspended in 3 ml of lysis buffer, and 10 μl thereof were mixed with 90 μl of lysis buffer and 100 μl of 6 × loading buffer. […]
(In general: In western blotting, separated proteins are transferred to a membrane and probed.)

Assay [2] deals with T2, ctSqt1.52C-(His)6 (Chaetomium thermophilum).
T2 chain: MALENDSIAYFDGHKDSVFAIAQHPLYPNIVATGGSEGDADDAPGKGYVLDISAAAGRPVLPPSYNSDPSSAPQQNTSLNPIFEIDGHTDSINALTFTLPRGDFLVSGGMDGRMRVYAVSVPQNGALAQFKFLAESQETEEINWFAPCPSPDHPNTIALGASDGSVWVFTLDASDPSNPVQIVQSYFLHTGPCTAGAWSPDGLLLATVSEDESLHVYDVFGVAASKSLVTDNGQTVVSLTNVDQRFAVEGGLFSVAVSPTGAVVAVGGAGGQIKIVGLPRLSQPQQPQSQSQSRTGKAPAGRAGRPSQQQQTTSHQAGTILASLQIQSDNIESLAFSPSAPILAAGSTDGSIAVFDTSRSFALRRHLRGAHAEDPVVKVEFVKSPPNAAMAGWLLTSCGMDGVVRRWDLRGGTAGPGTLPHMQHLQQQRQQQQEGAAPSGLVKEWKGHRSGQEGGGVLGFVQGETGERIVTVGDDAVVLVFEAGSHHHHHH
The assay is described as follows: ITC; 200 μl ctSqt1.52C (10 μM) in the cell, 2 μl injections of 100 μM peptide, 25 °C; 20 mM HEPES–NaOH (pH 7.5), 200 mM NaCl, 20 mM KCl, 20 mM MgCl2; One Set of Sites model; approximate Kd. (In general: ITC needs no label: the signal is the heat of the interaction.)

Assay [3] has as its target T2, ctSqt1.52C-(His)6. Kind of assay: ITC.
Assay [4] deals with T3, Sqt1.53C-(His)6 (S. cerevisiae, UniProt P35184 53-431).
T3 construct: Sqt1, S. cerevisiae, residues 53–431 (WD-repeat β-propeller domain); the ITC methods name only 'ScSqt1.53C'; the only free Sqt1.53C whose purification is described is Sqt1.53C-(His)6; also called ScSqt1.53C; source: E. coli Rosetta(DE3), purified (Ni-NTA, size-exclusion chromatography)
T3 sequence (looked up): T1 sequence (P35184 53-431)
The assay is described as follows: ITC; 200 μl ScSqt1.53C (100 μM) in the cell, 2 μl injections of 1 mM peptide, 15 °C; 20 mM HEPES–NaOH (pH 7.5), 200 mM NaCl, 20 mM KCl, 20 mM MgCl2; One Set of Sites model; approximate Kd. The following applies: both partners purified.

Assay [5] has as its target T4, Sqt1.53C-(His)6 (S. cerevisiae, UniProt P35184 53-431).
T4 chain: T1 sequence (P35184 53-431)
Kind of assay: ITC.

What is called Kd is the equilibrium constant for the complex coming apart. A lower Kd goes with tighter binding.

Where a chain is given by its changes, count along the chain named. Names and notes keep the numbering of the source. Ends that are not written are not given here.

MARRPARCYRYQKNKPYPKS [ScL10-N(1-20)]: in assay [1], the K came to 2.33E7±1.79E7, the N is 1.09±0.00692, the ΔH was −1.101E4 +/−158.6 and the ΔS is −4.45.

As for “amino acids 1–20 of Rpl10: amino acids 1–20 of Rpl10, Y2H bait fused to G4BD (MARRPARCYRYQKNKPYPKS; also: fused to Gal4 DNA-binding domain; UniProt P41805 1-20, looked up, fragment)”, the “Y2H interaction with Sqt1” value with Sqt1 is recorded as “sufficient to mediate the interaction with Sqt1”.

As for “L10-N: N-terminal residues of Rpl10 (general term; co-crystals and pull-downs use co-expressed Rpl10(1–20)-(His)6) (MARRPARCYRYQKNKPYPKS; not fully specified)”, the “co-purification with / interaction with Sqt1” value with Sqt1-Flag is “required and sufficient for a robust interaction both with full-length Sqt1 and its β-propeller domain”.

As for ARRPARCYRYQKNKPYPKS [ScL10-N(2–20)], in assay [1], the K came out at 4.78E7±2.57E7, the N is 1.076±0.0048, the ΔH is listed as −1.187E4±102.9 and the ΔS is −6.02. Also, the “preference of Sqt1 for the L10-N peptide lacking Met1” value in assay [1] (vs peptide containing Met1, S. cerevisiae) was “only a slight preference”.

B1: first 64 amino acids of Rpl10: first 64 amino acids of Rpl10, Y2H bait (protein, UniProt P41805 1-64, looked up, fragment)
chain: MARRPARCYRYQKNKPYPKSRYNRAVPDSKIRIYDLGKKKATVDEFPLCVHLVSNELEQLSSEA
modifications: Y2H bait
notes: first 64 amino acids of Rpl10, Y2H bait
Consider B1, for which, in the assay on Sqt1, the “Y2H interaction with Sqt1” value is “binds”.

With ARRPARCYRYCKNKPYPKS [ctRpl10(2–20) peptide], the Kd in the assay with ctSqt1.52C-(His)6 [2] came to 35 nM. For the same molecule, the Ka in the assay with ctSqt1.52C-(His)6 [3] was 2.82e+07 M⁻¹.

B2: Rpl10(1–20) peptide (peptide)
peptide: MARRPARCYRYQKNKPYPKS
notes: Rpl10 (uL16), S. cerevisiae, N-terminal 20 amino acids; free amino group at the N terminus, free acid group at the C terminus; also called ScL10-N peptide including Met1 (amino acids 1–20); source: synthetic peptide (peptides&elephants)
As to B2, in the assay with Sqt1.53C-(His)6 [4], the Kd is ~43 nM. The molecule further registered a Ka with Sqt1.53C-(His)6 [5] of 2.33e+07 M⁻¹.

B3: Rpl10(2–20) peptide (peptide)
peptide: ARRPARCYRYQKNKPYPKS
notes: Rpl10 (uL16), S. cerevisiae, N-terminal 19 amino acids without the N-terminal methionine; free amino group at the N terminus, free acid group at the C terminus; also called ScL10-N peptide lacking Met1 (amino acids 2–20); source: synthetic peptide (peptides&elephants)
With B3, the Kd in the assay with Sqt1.53C-(His)6 [4] is ~21 nM. Moreover, the Ka with Sqt1.53C-(His)6 [5] is 4.78e+07 M⁻¹.

B4: Arg10 to glutamate: Rpl10 variant, Arg10 mutated to glutamate (protein, UniProt P41805 2-221, looked up, variant R10E)
Large ribosomal subunit …: ARRPARCYEYQKNKPYPKSRYNRAVPDSKIRIYDLGKKKATVDEFPLCVHLVSNELEQLSSEALEAARICANKYMTTVSGRDAFHLRVRVHPFHVLRINKMLSCAGADRLQQGMRGAWGKPHGLAARVDIGQIIFSVRTKDSNKDVVVEGLRRARYKFPGQQKIILSKKWGFTNLDRPEYLKKREAGEVKDDGAFVKFLSKKGSLENNIREFPEYFAAQA
For B4, the “Y2H interaction with Sqt1” value in the assay on Sqt1 is recorded as “abolished”.

B5: Arg4 to glutamate: Rpl10 variant, substitution of Arg4 to glutamate (protein, UniProt P41805 2-221, looked up, variant R4E)
Large ribosomal subunit …: B4 Large ribosomal subunit … with R3E, E9R
As for B5, the “Y2H interaction with Sqt1” value with Sqt1 is reported as “only slightly reduced the interaction with Sqt1”.

MARRPARCYRYCKNKPYPKS [ctRpl10(1–20) peptide] gave a dissociation constant (Kd) with ctSqt1.52C-(His)6 [2] of 442 nM. In addition, the Ka with ctSqt1.52C-(His)6 [3] stood at 2.26e+06 M⁻¹.
